Experimental data taken from US6905016B2, “Packaging system for transdermal drug delivery systems” (Noven Pharmaceuticals, Inc., priority 2000, dated 2005).
Entries after “also recorded” stand apart in the source; their conditions may differ.

What was measured:
[1] = prescribed for morning sickness during pregnancy; cited from earlier work
[2] = system: beta-adrenergic; details: L-form versus D-enantiomer; cited from earlier work
[3] = Degradation of methylphenidate in presence of moisture or packaging materials (observation)

In the case of O=C1CCC(N2C(=O)c3ccccc3C2=O)C(=O)N1 (single isomer, unassigned) [D-enantiomer of thalidomide, thalidomide], the “safety/effect of enantiomer in pregnancy” value [1] is listed as “safe and effective sedative”.

For O=C1CCC(N2C(=O)c3ccccc3C2=O)C(=O)N1 (single isomer, unassigned) [L-enantiomer of thalidomide, thalidomide], the “safety/effect of enantiomer in pregnancy” value [1] is given as “potent teratogen”.

In the case of CC(C)NC[C@H](O)COc1cccc2ccccc12 [L-form of propranolol, propranolol], the “potency relative to the D-enantiomer” value [2] is listed as 100 times.

In the case of COC(=O)C(c1ccccc1)C1CCCCN1 (centres unmarked) [methylphenidate], the “stability in the presence of packaging materials” value ([3]; certain types of packaging materials used for transdermal systems) is reported as “unstable” and the “degradation in the presence of moisture” value ([3]; exposure to moisture) is reported as “form ritalinic acid by hydrolysis; also recorded: formation of the erythro-enantiomers”.
